Test results taken from patent publication US20090271164A1, “PREDICTING LONG-TERM EFFICACY OF A COMPOUND IN THE TREATMENT OF PSORIASIS” (priority 2008, published 2009).
Values joined by “and” are separate entries in the source; they are usually repeats but may differ in a detail not shown here. Identical values can stand only once. Like-named read-outs stand apart in the source and are kept apart here.

Key:
[1] = cited from earlier work
[2] = tested on: patients with moderate-to-severe chronic plaque psoriasis; experiment: Population PK/PD (exposure-efficacy) modeling with NONMEM and clinical trial simulation of long-term MTX treatment; set-up: species or system human
Description: The PK/PD model was built using a non-linear mixed-effects population modeling (NONMEM) approach with NONMEM software (double precision, Version VI) and a NMTRAN pre-processor. Models were compiled using the Intel Visual Fortran compiler (Version 9) on a dual processor workstation (DELL Precision 530) under the Windows 2000 (Service pack 4) operating system.
All 110 MTX-treated subjects in Study M04-716 were included in the population PK/PD analysis.
All the observed PASI scores over the 16-week period in MTX-treated subjects in Study M04-716 were used.
The amount in the central compartment was scaled by the apparent volume of distribution (V/F).
All subjects were assumed to have the typical PK parameter values (i.e., intersubject and intrasubject variabilities were set to zero).
Several PD models were examined. The first model is an indirect response model with an inhibitory effect (Imax and IC50) of Ce (concentration at an effect compartment) on Kin. Kin is the ‘synthesis rate’ into a compartment where PASI scores reside in. The 2nd model examined was similar to the final PD model (see below), except that the rate into the 3rd compartment is Kin·(Emax/(1+EC50/Cp)), rather than Kin·Cp.
The final PD model is a two-step indirect model (as shown below). […] In this model, Compartments 3 and 4 were added as delay/modulator compartments for triggering the observed PASI response.
Kin and Kout are the rate constants into and out of Compartment 3. […] Kout was set equal to Kin. K40 is the rate constant out of Compartment 4, and it controls the persistence of PASI response. PASI is the predicted PASI score, which equals to the baseline PASI score divided by a factor great than one, and the parameter ‘GAM’ influences the steepness of the functional relationship.
For the PD modeling, exponential error models were used to describe the inter-individual errors on the PD parameters Kin and K40.
The evaluation criteria used to select an appropriate PK/PD model are described below: • 1. […] The OFV is equal to −2 times the maximum logarithm of the likelihood of the data (−2LL). Non-hierarchical models are compared based on the AKAIKE criterion. • 2. The observed and predicted PASI scores from a preferred model were more randomly distributed across the line of unity (a straight line with zero intercept and a slope of one) than those from alternative model(s). • 3.
The first-order conditional estimation (FOCE) with INTERACTION method was employed within NONMEM, and a diagonal structure of the n matrix was assumed.
The final population PK/PD model was validated using a bootstrap method (random resampling with replacement). […]

[3] = tested on: patients with moderate-to-severe chronic plaque psoriasis; experiment: Study M04-716 (CHAMPION), 16-week Phase III active- and placebo-controlled trial, PASI 75 response; assay type: in vivo, human; conditions: for PASI 75 response rate at Week 16: observed, Week 16 relative to Baseline
Method: The primary efficacy endpoint was the proportion of subjects achieving at least a 75% reduction in the Psoriasis Area and Severity Index (PASI) score (i.e., ≧PASI 75 response) at Week 16 relative to Baseline (Week 0).
Study M04-716 was a 16-week multicenter, double-blind, and double-dummy study.
PASI scores were assessed prior to the first dose of study drug (Baseline) and at Weeks 1, 2, 4, 8, 12 and 16.
Dose escalation/titration was carried out according to the efficacy and safety criteria defined in the protocol.
In addition, the subjects were candidates for systemic therapy or phototherapy.
The ADA treatment group received 40 mg every-other-week (eow) injections from Week 1, following an 80-mg initial dose. […] Dose escalation was carried out according to the efficacy and safety criteria defined in the study protocol. All study patients received injections as well as oral tablets, regardless of treatment group assignment (double-dummy design) (FIG. 5). Patient outcome was measured using a PASI 75 response: a 75% reduction (improvement) in PASI score at Week 16 compared with the baseline score.

[4] = fixed in the PK model, from the literature
[5] = two-step indirect response model, Run 18

| Compound | V/F (apparent volume of distribution), values in the literature ([1]; RA) [L/kg in RA.^2] | CL/F (apparent clearance), value used in NONMEM [1, 4] [mL/min/kg] | Ka (first-order absorption rate constant), value used in NONMEM [1, 4] [day⁻¹] | V/F (apparent volume of distribution), value used in NONMEM [1, 4] [L/kg] | half-life ([1]; in vivo) [h] | Tmax, values in the literature ([1]; leukemic pediatric patients) | Vss (volume of distribution at steady state), values in the literature ([1]; patient population unspecified) | CL/F (apparent clearance), values in the literature ([1]; patients with psoriasis) | Tmax, values in the literature ([1]; patients with psoriasis) | CL/F (apparent clearance), values in the literature ([1]; patients with rheumatoid arthritis (RA)) | simulated PASI 75 response rate at Week 52 greater than that at Week 16 ([2]; difference Week 52 vs Week 16) | K40 = THETA (2), estimate, final PD model [2, 5] [day⁻¹] | Kin = THETA (1), estimate, final PD model [2, 5] [day⁻¹] | calculated Tmax ([2]; with CL/F = 3 L/day/kg, V/F = 0.6 L/kg, Ka = 10 day^−1) | PASI75 Response Rate (90% CI) Actual (NRI) ([3]; Week 1) | PASI75 Response Rate (90% CI) Actual (NRI) ([3]; Week 2) | PASI75 Response Rate (90% CI) Actual (NRI) ([3]; Week 4) | PASI75 Response Rate (90% CI) Actual (NRI) ([3]; Week 8) | PASI75 Response Rate (90% CI) Actual (NRI) ([3]; Week 16) | PASI 75 response rate at Week 16 [3] [%] |
| --- | --- | --- | --- | --- | --- | --- | --- | --- | --- | --- | --- | --- | --- | --- | --- | --- | --- | --- | --- | --- |
| CN(Cc1cnc2nc(N)nc(N)c2n1)c1ccc(C(=O)N[C@@H](CCC(=O)O)C(=O)O)cc1 [MTX, methotrexate] | 0.55 | 2.1 | 10 | 0.6 | 2 to 3 | Tmax = 0.67-4 hrs in leukemic pediatric patients.^3 | 0.4-0.8 L/kg (Vss).^3 | 12.4 L/h and 10.8 L/h and 11.5 L/h | Tmax = 2 hrs in patients with psoriasis. | 2.1 mL/min/kg in patients with rheumatoid | approximately 12% | 0.0203 | 3.83 | Tmax would be 3.3 hrs, | 0.0 (0.1, 3.2) | 0.0 (0.1, 3.2) | 2.7 (0.8, 7.2) | 9.1 (5.2, 15.2) | 35.5 (28.0, 43.7) | 35.5 |
| adalimumab | – | – | – | – | – | – | – | – | – | – | – | – | – | – | – | – | – | – | – | 79.6 |
